According to EP0307077A1, “Tetrahydrocarbazoles for the improvement of cyclosporin therapy” (MERCK FROSST CANADA INC., priority 1987, dated 1989):

Columns and labels:
[1] = test system: rats; conditions: cyclosporine A nephrotoxicity model, Penico et al. 1986; cited from earlier work
[2] = test system: female spontaneously hypertensive (SHR) rats; test: Cyclosporine A-induced nephrotoxicity, 14 days dosing, serum BUN (Example 63); format: in vivo
Description: All experiments were carried out using female spontaneously hypertensive (SHR) rats, weight range 160-200 gm, obtained from Taconic Farms. […] Three thromboxane antagonists have been studied. […] Thromboxane antagonists have been administered as the sodium salt dissolved in saline, the sodium salt dissolved in 0.1% NaHCO3 or the free acid suspended in 1% Methocel.

[3] = test system: female spontaneously hypertensive (SHR) rats; test: Cyclosporine A-induced nephrotoxicity, pilot study, 2 weeks dosing, serum BUN and creatinine (Example 64); format: in vivo; conditions: for Serum BUN / Serum Creatinine: 2 weeks, means ± S.E.M. (n = 8)
[4] = test system: female spontaneously hypertensive (SHR) rats; test: Cyclosporine A-induced nephrotoxicity, 5 week study, serum BUN, serum creatinine, creatinine clearance (Example 64); conditions: for Mean Serum BUN Values: Compound 63 (10 mg/kg/day) and Cyclosporine A; for Mean Serum Creatinine Levels: Compound 63 (10 mg/kg/day) and Cyclosporine
Description: Experiments were carried out using groups of 6 female spontaneously hypertensive (SHR) rats, weight range 166-194 gm, obtained form Taconic Farms. […] At weekly intervals form 2 weeks onwards, animals were placed in individual metabolism cages and 24 hr urin samples collected, the volume measured and the creatinine levels determined (Lakeshore Diagnostic Laboratories). Creatinine clearance per rat was calculated from the formula: [formula] where Ucr = concentration of creatine in urine • Per = concentration of creatinine in plasma • V = volume of urine flow in ml/min
After removal from the metabolism cage, a blood sample was taken from each rat for determination of serum BUN and creatinine (Lakeshore Diagnostic Laboratories). In a preliminary study, groups of 8 rats were dosed as above for 2 weeks only and serum samples removed for determination of BUN and creatinine as above.

[5] = Cyclosporine A and Compound 63 3 mg/kg/day
[6] = Cyclosporine A and Compound 63 10 mg/kg/day

## Cc1c(Cn2ccnc2)c2ccccc2n1CCC(=O)O [Uk-38,485]
[1]
  glomerular filtration rate: increased
  urinary TxB2: reduced

## O=C(O)CC1CCCc2c1n(Cc1ccc(Cl)cc1)c1ccc(F)cc21 (racemic) [Compound 1, 9-p-chlorobenzyl-6-fluoro-1,2,3,4-tetrahydracarbazol-1-yl-acetic acid]
[2]; Table 1 (Experiment 1), 3 mg/kg/day in saline with cyclosporine A
  inhibition of the increase in serum BUN: significant inhibition

## O=C(O)CC1CCCc2c1n(Cc1ccc(Cl)cc1)c1c(F)cc(F)cc21 (single isomer, unassigned; (-)) [Compound 37, (-)-9 p-Chlorobenzyl-6,8-difluoro-1,2,3,4-tetrahydrocarbazol-1-yl-acetic acid]
[2]; both doses (3 and 10 mg/kg/day), suspension of the free acid, with cyclosporine A
  inhibition of the rise in serum BUN: significant inhibition

## CS(=O)(=O)c1ccc(Cn2c3c(c4cc(F)cc(F)c42)CCCC3CC(=O)O)cc1 (single isomer, unassigned; (-)) [Compound 50, (-)9-p-Methylsulfonylbenzyl-6,8-difluoro-1,2,3,4-tetrahydrocarbazol-1-yl acetic acid]
[2]; both 3 and 10 mg/kg/day, suspension of the free acid (Table 4)
  effects on cyclosporine A-induced rises in serum BUN: effective

## CS(=O)(=O)c1ccc(Cn2c3c(c4cc(F)cc(F)c42)CCCC3CC(=O)O)cc1 (single isomer, unassigned) [Compound 63]
[3]; 3 or 10 mg/kg/day with cyclosporine A, pilot study
  reduction of the increase in serum BUN: significantly reduced the increase in serum BUN to control levels
[3]; [5]
  Serum BUN: 20.8 ± 1.0 mg/dL
  Serum Creatinine: 0.64 ± 0.02 mg/dL
[3]; [6]
  Serum BUN: 22.2 ± 0.7 mg/dL
  Serum Creatinine: 0.65 ± 0.04 mg/dL
[3]; higher dose (10 mg/kg/day) with cyclosporine A, pilot study, p = 0.07
  reduction of the increase in serum creatinine: failed to reach statistical significance
[3]; lower dose (3 mg/kg/day) with cyclosporine A, pilot study
  reduction of the increase in serum creatinine: significantly reduced the increase in serum creatinine
[4]; week 2
  Mean Serum BUN Values: 26.4 ± 0.9 mg/dL
  Mean Serum Creatinine Levels: 0.51 ± 0.03 mg/dL
[4]; week 3
  Mean Serum BUN Values: 22.3 ± 1.7 mg/dL
  Mean Serum Creatinine Levels: 0.44 ± 0.01 mg/dL
  creatinine clearance, Compound 63 and cyclosporine A compared to cyclosporine A alone: significantly different
[4]; week 4
  Mean Serum BUN Values: 24.0 ± 1.4 mg/dL
  Mean Serum Creatinine Levels: 0.54 ± 0.02 mg/dL
[4]; week 5
  Mean Serum BUN Values: 21.0 ± 1.1 mg/dL
  Mean Serum Creatinine Levels: 0.42 ± 0.01 mg/dL
[4]; cotreatment with Compound 63 (10 mg/kg/day), 5 week study
  prevention of cyclosporine A-induced changes (serum BUN, creatinine clearance): prevented
[4]; overall conclusion of Example 64
  cyclosporine A-induced nephrotoxicity: inhibits
[4]; week 5, p = 0.07
  creatinine clearance, Compound 63 and cyclosporine A compared to cyclosporine A alone: just failed to reach statistical significance
[4]; weeks 3 and 5
  serum BUN, Compound 63 and cyclosporine A compared to cyclosporine A alone: significantly different
